Laboratory results published in patent publication US11319299B2, “Substituted carboxamides as inhibitors of WDR5 protein-protein binding” (PROPELLON THERAPEUTICS INC., priority 2016, dated 2022).

What follows are molecules tested against WDR5 (Homo sapiens (Human), UniProt P61964) (assay: Surface Plasmon Resonance (SPR) assay, KD and residence time). Conditions: surface plasmon resonance (SPR); read-out: WDR5 binding affinity (KD).
Assay type: binding
`CNC(=O)c1cc(-c2cc(NC(=O)c3c[nH]c(=O)cc3C(F)F)c(N3C[C@@H](C)N(C)[C@@H](C)C3)cc2F)ccc1F` [Example 606, 4-(difluoromethyl)-N-[4-fluoro-5-[4-fluoro-3-(methylcarbamoyl)phenyl]-2-[(3R,5S)-3,4,5-trimethylpiperazin-1-yl]phenyl]-6-oxo-1H-pyridine-3-carboxamide] showed a Kd of 1.86 nM. For `C[C@@H]1CN(c2cc(F)c(C3=CCN(C(=O)N4CCCC4)C3)cc2NC(=O)c2c[nH]c(=O)cc2C(F)F)C[C@H](C)N1C` [Example 612, 4-(Difluoromethyl)-N-(4-fluoro-5-(1-(pyrrolidine-1-carbonyl)-2,5-dihydro-1H-pyrrol-3-yl)-2-((3S,5R)-3,4,5-trimethylpiperazin-1-yl)phenyl)-6-oxo-1,6-dihydropyridine-3-carboxamide], the Kd was 1.94 nM. In the case of `C[C@@H]1CN(c2cc(F)c(C3=CCCN(c4ncc(C#N)s4)C3)cc2NC(=O)c2c[nH]c(=O)cc2C(F)(F)F)C[C@H](C)N1C` [Example 615, N-[5-[1-(5-cyano-1,3-thiazol-2-yl)-3,6-dihydro-2H-pyridin-5-yl]-4-fluoro-2-[(3R,5S)-3,4,5-trimethylpiperazin-1-yl]phenyl]-6-oxo-4-(trifluoromethyl)-1H-pyridine-3-carboxamide], the Kd is reported as 0.375 nM. In the case of `C[C@@H]1CN(c2cc(F)c(-c3csc(N4CCOCC4)n3)cc2NC(=O)c2c[nH]c(=O)cc2C(F)(F)F)C[C@H](C)N1C` [Example 616, N-[4-fluoro-5-(2-morpholin-4-yl-1,3-thiazol-4-yl)-2-[(3R,5S)-3,4,5-trimethylpiperazin-1-yl]phenyl]-6-oxo-4-(trifluoromethyl)-1H-pyridine-3-carboxamide], the Kd is reported as 0.748 nM. With `C[C@@H]1CN(c2cc(F)c(-c3cnc(N4CCOCC4)s3)cc2NC(=O)c2c[nH]c(=O)cc2C(F)(F)F)C[C@H](C)N1C` [Example 619, N-[4-fluoro-5-(2-morpholin-4-yl-1,3-thiazol-5-yl)-2-[(3R,5S)-3,4,5-trimethylpiperazin-1-yl]phenyl]-6-oxo-4-(trifluoromethyl)-1H-pyridine-3-carboxamide] the Kd was 0.948 nM. `C[C@@H]1CN(c2cc(F)c(-c3csc(N4CCOCC4)n3)cc2NC(=O)c2cn(C)c(=O)cc2C(F)F)C[C@H](C)N1C` [Example 622, 4-(difluoromethyl)-N-[4-fluoro-5-(2-morpholin-4-yl-1,3-thiazol-4-yl)-2-[(3R,5S)-3,4,5-trimethylpiperazin-1-yl]phenyl]-1-methyl-6-oxopyridine-3-carboxamide] gave a Kd of 5.15 nM. Molecule `C[C@@H]1CN(c2cc(F)c(-c3cnc(N4CCOCC4)s3)cc2NC(=O)c2cn(C)c(=O)cc2C(F)F)C[C@H](C)N1C` [Example 623, 4-(difluoromethyl)-N-[4-fluoro-5-(2-morpholin-4-yl-1,3-thiazol-5-yl)-2-[(3R,5S)-3,4,5-trimethylpiperazin-1-yl]phenyl]-1-methyl-6-oxopyridine-3-carboxamide] has a Kd of 5.57 nM. `C[C@@H]1CN(c2cc(F)c(-c3cc(C(=O)NC(C)(C)CC(C)(C)C)c(F)cc3F)cc2NC(=O)c2c[nH]c(=O)cc2C(F)(F)F)C[C@H](C)N1C` [Example 626, N-[5-[2,4-difluoro-5-(2,4,4-trimethylpentan-2-ylcarbamoyl)phenyl]-4-fluoro-2-[(3R,5S)-3,4,5-trimethylpiperazin-1-yl]phenyl]-6-oxo-4-(trifluoromethyl)-1H-pyridine-3-carboxamide] was tested, and the Kd was 5.24 nM. Molecule `C[C@@H]1CN(c2cc(F)c(-c3cc(C(=O)NC(C)(C)CC(C)(C)C)c(F)cc3F)cc2NC(=O)c2c[nH]c(=O)cc2C(F)F)C[C@H](C)N1C` [Example 627, 4-(difluoromethyl)-N-[5-[2,4-difluoro-5-(2,4,4-trimethylpentan-2-ylcarbamoyl)phenyl]-4-fluoro-2-[(3R,5S)-3,4,5-trimethylpiperazin-1-yl]phenyl]-6-oxo-1H-pyridine-3-carboxamide] has a Kd of 23.3 nM. With `C[C@H]1CN(c2cc(F)c(C3=CCN(C(=O)N4CCCC4)C3)cc2NC(=O)c2c[nH]c(=O)cc2C(F)F)CCN1C` [Example 629, (S)-4-(Sifluoromethyl)-N-(2-(3,4-dimethylpiperazin-1-yl)-4-fluoro-5-(1-(pyrrolidine-1-carbonyl)-2,5-dihydro-1H-pyrrol-3-yl)phenyl)-6-oxo-1,6-dihydropyridine-3-carboxamide] the Kd was 2.22 nM. `C[C@@H]1CN(c2cc(F)c(C3=CCN(C(=O)OC4(C)CCC4)C3)cc2NC(=O)c2c[nH]c(=O)cc2C(F)F)C[C@H](C)N1C` [Example 630, 1-Methylcyclobutyl 3-(5-(4-(difluoromethyl)-6-oxo-1,6-dihydropyridine-3-carboxamido)-2-fluoro-4-((3S,5R)-3,4,5-trimethylpiperazin-1-yl)phenyl)-2,5-dihydro-1H-pyrrole-1-carboxylate] was tested, and the Kd was 1.98 nM. Work on `C[C@H]1CN(c2cc(F)c(C3=CCN(C(=O)OC4(C)CCC4)C3)cc2NC(=O)c2c[nH]c(=O)cc2C(F)F)CCN1C` [Example 631, 1-Methylcyclobutyl (S)-3-(5-(4-(difluoromethyl)-6-oxo-1,6-dihydropyridine-3-carboxamido)-4-(3,4-dimethylpiperazin-1-yl)-2-fluorophenyl)-2,5-dihydro-1H-pyrrole-1-carboxylate] yielded a Kd of 2.65 nM. `C[C@@H]1CN(c2cc(F)c(-c3cc(C(N)=O)c(F)cc3F)cc2NC(=O)c2c[nH]c(=O)cc2C(F)(F)F)C[C@H](C)N1C` [Example 632, N-[5-(5-carbamoyl-2,4-difluorophenyl)-4-fluoro-2-[(3R,5S)-3,4,5-trimethylpiperazin-1-yl]phenyl]-6-oxo-4-(trifluoromethyl)-1H-pyridine-3-carboxamide] gave a Kd of 11.4 nM. `C[C@@H]1CN(c2cc(F)c(-c3cc(C(N)=O)c(F)cc3F)cc2NC(=O)c2c[nH]c(=O)cc2C(F)F)C[C@H](C)N1C` [Example 633, N-[5-(5-carbamoyl-2,4-difluorophenyl)-4-fluoro-2-[(3R,5S)-3,4,5-trimethylpiperazin-1-yl]phenyl]-4-(difluoromethyl)-6-oxo-1H-pyridine-3-carboxamide] was tested, and the Kd was 11.9 nM. In the case of `C[C@@H]1CN(c2cc(F)c(-c3cc(C(N)=O)c(F)cc3F)cc2NC(=O)c2ccc(F)cc2C(F)(F)F)C[C@H](C)N1C` [Example 634, 2,4-difluoro-5-[2-fluoro-5-[[4-fluoro-2-(trifluoromethyl)benzoyl]amino]-4-[(3R,5S)-3,4,5-trimethylpiperazin-1-yl]phenyl]benzamide], the Kd is reported as 69.5 nM. With `C[C@@H]1CN(c2cc(F)c(-c3cnc(N4CCC(C)(O)CC4)nc3)cc2NC(=O)c2ccc(F)cc2C(F)(F)F)C[C@H](C)N1C` [Example 636, 4-Fluoro-N-[4-fluoro-5-[2-(4-hydroxy-4-methylpiperidin-1-yl)pyrimidin-5-yl]-2-[(3R,5S)-3,4,5-trimethylpiperazin-1-yl]phenyl]-2-(trifluoromethyl)benzamide] the Kd was 1.42 nM. `C[C@@H]1CN(c2cc(F)c(C3=CCN(C(=O)OC4CC(F)(F)C4)C3)cc2NC(=O)c2c[nH]c(=O)cc2C(F)F)C[C@H](C)N1C` [Example 637, 3,3-Difluorocyclobutyl 3-(5-(4-(difluoromethyl)-6-oxo-1,6-dihydropyridine-3-carboxamido)-2-fluoro-4-((3S,5R)-3,4,5-trimethylpiperazin-1-yl)phenyl)-2,5-dihydro-1H-pyrrole-1-carboxylate] showed a Kd of 2.26 nM. In the case of `C[C@H]1CN(c2cc(F)c(C3=CCN(C(=O)OC4CC(F)(F)C4)C3)cc2NC(=O)c2c[nH]c(=O)cc2C(F)F)CCN1C` [Example 638, 3,3-Difluorocyclobutyl (S)-3-(5-(4-(difluoromethyl)-6-oxo-1,6-dihydropyridine-3-carboxamido)-4-(3,4-dimethylpiperazin-1-yl)-2-fluorophenyl)-2,5-dihydro-1H-pyrrole-1-carboxylate], the Kd is reported as 2.27 nM. Molecule `C[C@H]1CN(c2cc(F)c(C3=CCN(c4cnc(C#N)nc4)CC3)cc2NC(=O)c2c[nH]c(=O)cc2C(F)F)CCN1C` [Example 639, (S)—N-(5-(1-(2-cyanopyrimidin-5-yl)-1,2,3,6-tetrahydropyridin-4-yl)-2-(3,4-dimethylpiperazin-1-yl)-4-fluorophenyl)-4-(difluoromethyl)-6-oxo-1,6-dihydropyridine-3-carboxamide] has a Kd of 4.97 nM. `C[C@@H]1CN(c2ncc(-c3cc(NC(=O)c4cn(C)c(=O)cc4C(F)(F)F)c(N4C[C@@H](C)N(C)[C@@H](C)C4)cc3F)cn2)CCO1` [Example 640, N-[4-fluoro-5-[2-[(2R)-2-methylmorpholin-4-yl]pyrimidin-5-yl]-2-[(3R,5S)-3,4,5-trimethylpiperazin-1-yl]phenyl]-1-methyl-6-oxo-4-(trifluoromethyl)pyridine-3-carboxamide] gave a Kd of 1.74 nM. For `C[C@@H]1CN(c2cc(F)c(-c3cnc(N4CCC(C)(O)CC4)nc3)cc2NC(=O)c2cn(C)c(=O)cc2C(F)(F)F)C[C@H](C)N1C` [Example 641, N-[4-fluoro-5-[2-(4-hydroxy-4-methylpiperidin-1-yl)pyrimidin-5-yl]-2-[(3R,5S)-3,4,5-trimethylpiperazin-1-yl]phenyl]-1-methyl-6-oxo-4-(trifluoromethyl)pyridine-3-carboxamide], the Kd was 1.92 nM. `C[C@@H]1CN(c2cc(F)c(C3=CCCN(c4nc(C#N)cs4)C3)cc2NC(=O)c2c[nH]c(=O)cc2C(F)(F)F)C[C@H](C)N1C` [Example 642, N-[5-[1-(4-cyano-1,3-thiazol-2-yl)-3,6-dihydro-2H-pyridin-5-yl]-4-fluoro-2-[(3R,5S)-3,4,5-trimethylpiperazin-1-yl]phenyl]-6-oxo-4-(trifluoromethyl)-1H-pyridine-3-carboxamide] was tested, and the Kd was 1.3 nM. Molecule `C[C@@H]1CN(c2cc(F)c(C3=CCCN(c4ncco4)C3)cc2NC(=O)c2c[nH]c(=O)cc2C(F)(F)F)C[C@H](C)N1C` [Example 643, N-[4-fluoro-5-[1-(1,3-oxazol-2-yl)-3,6-dihydro-2H-pyridin-5-yl]-2-[(3R5S)-3,4,5-trimethylpiperazin-1-yl]phenyl]-6-oxo-4-(trifluoromethyl)-H-pyridine-3-carboxamide] has a Kd of 1.26 nM. Work on `C[C@@H]1CN(c2cc(F)c(C3=CCCN(c4ncccn4)C3)cc2NC(=O)c2c[nH]c(=O)cc2C(F)F)C[C@H](C)N1C` [Example 644, 4-(difluoromethyl)-N-[4-fluoro-5-(1-pyrimidin-2-yl-3,6-dihydro-2H-pyridin-5-yl)-2-[(3R,5S)-3,4,5-trimethylpiperazin-1-yl]phenyl]-6-oxo-1H-pyridine-3-carboxamide] yielded a Kd of 1.32 nM.
